Results from PubChem BioAssay AID651653 (NMMLSC, 2012).
Activity calls are given as the source filed them.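 The calls were made as follows: active = viability at the top tested dose under 50% of the solvent-only control; inactive = the rest.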

system: not listed separately; assay: cytotoxicity in ABCB6-expressing K562 cells, dose response, cytotoxicity control for ABCB6 inhibitor project, cell-based, CellTiter-Glo luminescence, cherry picks 01-02 (AID 651653); conditions: K562-ABCB6 viability, CellTiter-Glo luminescence, 18 h; at 100 µM (top of the series)

Row | Structure (SMILES) | viability
1 | CCCc1nnc(NC(=O)c2nc(S(=O)(=O)Cc3cccc(C)c3)ncc2Cl)s1 | 65.4% (inactive)

system: K562-ABCB6 viability, CellTiter-Glo luminescence, 18 h; assay: as above; conditions: not given

Row | Structure (SMILES) | EC50
2 | Cc1ccccc1CS(=O)(=O)c1ncc(Cl)c(C(=O)Nc2ccc(F)cc2)n1 | 7150 nM
3 | Cc1ccc(NC(=O)c2nc(S(=O)(=O)Cc3ccccc3C)ncc2Cl)cc1C | 1450 nM
4 | CCN(CC)S(=O)(=O)c1cccc(-n2c(O)c(C=Nc3ccccc3C(=O)O)c3ccccc3c2=O)c1 | 13100 nM
5 | C[N+](C)(C)CC1CCCC(C[N+](C)(C)C)C1=O (stereo not given) | 245 nM
6 | CC(=O)Nc1ccc(NC(=O)c2nc(S(=O)(=O)Cc3cccc(C)c3)ncc2Cl)cc1 | 1920 nM
7 | Cc1ccc(NC(=O)c2nc(S(=O)(=O)Cc3ccccc3)ncc2Cl)cc1 | 1800 nM
8 | CCOC(=O)c1ccc(NC(=O)c2nc(S(=O)(=O)Cc3ccccc3)ncc2Cl)cc1 | 1790 nM
9 | O=C(Nc1ccc(F)cc1)c1nc(S(=O)(=O)Cc2ccccc2)ncc1Cl | 1540 nM
10 | CCOc1ccccc1NC(=O)c1nc(S(=O)(=O)Cc2ccccc2)ncc1Cl | 11800 nM
11 | Cc1ccc(CS(=O)(=O)c2ncc(Cl)c(C(=O)Nc3nnc(C(C)C)s3)n2)cc1 | 3930 nM
12 | CCOc1ccccc1NC(=O)c1nc(S(=O)(=O)Cc2cccc(C)c2)ncc1Cl | 1430 nM
13 | CC(=O)Nc1ccc(NC(=O)c2nc(S(=O)(=O)Cc3ccccc3)ncc2Cl)cc1 | 1190 nM
14 | Cc1cccc(CS(=O)(=O)c2ncc(Cl)c(C(=O)Nc3nnc(C(C)C)s3)n2)c1 | 6520 nM
15 | Cc1nnc(NC(=O)c2nc(S(=O)(=O)Cc3ccccc3)ncc2Cl)s1 | 811 nM
16 | CCc1ccc(NC(=O)c2nc(S(=O)(=O)Cc3ccccc3)ncc2Cl)cc1 | 1620 nM
17 | COC(=O)c1ccc(NC(=O)c2nc(S(=O)(=O)Cc3cccc(C)c3)ncc2Cl)cc1 | 688 nM
18 | Cc1ccc(CS(=O)(=O)c2ncc(Cl)c(C(=O)Nc3ccc(OC(F)F)cc3)n2)cc1 | 3540 nM
19 | Cc1cccc(CS(=O)(=O)c2ncc(Cl)c(C(=O)Nc3ccc(F)cc3)n2)c1 | 1520 nM
20 | Cc1cccc(C)c1NC(=O)c1nc(S(=O)(=O)Cc2ccccc2)ncc1Cl | 2110 nM
